{"source": "patent US20230064307A1", "about": "“Pharmaceutical composition to destabilize abnormal methylation enzymes and use thereof” (priority 2021, published 2023)", "key": {"[1]": {"test_system": "cells with abnormal MEs", "assay": "Differentiation inducer (DI) activity, ED25/ED50/ED75", "assay_type": "cell-based"}, "[2]": {"test_system": "cells with abnormal MEs", "assay": "Differentiation helper inducer (DHI) potency, RI0.5 (reductive index)", "assay_type": "cell-based", "source_text": "DHI was our invention, which was the term we created. DHls are inhibitors of individual enzymes of MEs. Rl0.5 was the method we developed for the measurement of potency as DHI [67]."}, "[3]": {"assay": "Water solubility", "assay_type": "physicochemical"}, "[4]": {"biological_target": "T1, MAT (Homo sapiens, UniProt P31153)", "T1 construct": "endogenous in cells", "T1 sequence (P31153 whole entry)": "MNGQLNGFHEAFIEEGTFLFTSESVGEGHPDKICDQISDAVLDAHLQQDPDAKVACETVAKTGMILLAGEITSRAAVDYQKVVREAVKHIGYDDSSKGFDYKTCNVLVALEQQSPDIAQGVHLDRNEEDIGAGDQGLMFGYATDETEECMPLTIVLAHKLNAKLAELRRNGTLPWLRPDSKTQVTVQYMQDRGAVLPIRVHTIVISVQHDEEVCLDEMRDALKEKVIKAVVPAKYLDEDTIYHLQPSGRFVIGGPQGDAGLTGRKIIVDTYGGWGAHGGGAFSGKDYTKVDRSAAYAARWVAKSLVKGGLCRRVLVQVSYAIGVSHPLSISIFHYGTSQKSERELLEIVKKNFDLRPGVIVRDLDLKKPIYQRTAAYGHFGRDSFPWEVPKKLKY", "assay": "Helping role of DHI to boost the activity of DI, in cell culture (Km, Vmax of enzyme from treated cells)", "assay_type": "cell-based", "source_text": "(§1) DHI was our invention, which was the term we created. DHls are inhibitors of individual enzymes of MEs. Rl0.5 was the method we developed for the measurement of potency as DHI [67]. Inhibitors of MT and SAHH are better than inhibitors of MAT to function as DHIs."}, "[5]": {"test_system": "cells with abnormal MEs", "assay": "Helping role of DHI to boost the activity of DI, in cell culture (% NBT+)", "assay_type": "cell-based", "source_text": "as §1"}, "[6]": {"biological_target": "T2, MEs (MAT-MT-SAHH) (Rattus norvegicus, UniProt P10760)", "T2 construct": "Cytosol extracts were prepared from prostates of each group; from tissue; host or cells: prostate cytosol of hypophysectomized rats", "T2 sequence (P10760 1-432)": "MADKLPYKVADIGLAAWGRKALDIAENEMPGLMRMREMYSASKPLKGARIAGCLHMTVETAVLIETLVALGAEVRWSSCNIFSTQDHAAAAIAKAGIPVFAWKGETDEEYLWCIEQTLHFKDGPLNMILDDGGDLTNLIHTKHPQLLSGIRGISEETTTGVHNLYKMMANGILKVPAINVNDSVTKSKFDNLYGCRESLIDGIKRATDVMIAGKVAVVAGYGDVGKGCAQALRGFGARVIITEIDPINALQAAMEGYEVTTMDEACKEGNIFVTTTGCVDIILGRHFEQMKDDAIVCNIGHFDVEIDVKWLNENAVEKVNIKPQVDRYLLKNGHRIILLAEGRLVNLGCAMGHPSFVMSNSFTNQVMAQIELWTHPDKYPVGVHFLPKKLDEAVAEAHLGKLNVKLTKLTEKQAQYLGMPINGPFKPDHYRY", "assay": "Testosterone administration, sedimentation profiles of MEs from long-term hormone-depleted prostate (FIG. 1)", "assay_type": "in vivo", "settings": "hypophysectomized rats, daily sc 1 mg for 3 days; single peak, intact ternary MEs", "description": "Ten weeks after hypophysectomy, rats were divided into two groups. One group (b) received daily sc injection of I mg testosterone propionate dissolved in 0.25 ml of sesame oil for 3 days. The other group (a) was control without treatment. Cytosol extracts were prepared from prostates of each group with 5 volume of extraction buffer 0.05 M Tris HCl, pH 7.5, 50 mM KCl, 0.5 mM MgCl2. 0.1 ml of cytosol extracts were layered onto 5-20% linear sucrose density gradient for sedimentation analyses."}, "[7]": {"test_system": "malignant brain tumors", "settings": "in vivo; cited from earlier work"}, "[8]": {"settings": "potency as DHI, RI0.5 is equivalent to ED25 of DI"}}, "note": "Read-outs that look alike come from different tables or passages of the source."}
{"compound": "CCCCC(C)(C)[C@H](O)/C=C/[C@H]1[C@H](O)CC(=O)[C@@H]1C/C=C\\CCCC(=O)O", "note": "[16, 16-dimethylPGE2, 16,16-dimethylprosglandin E2]", "values": [{"measurement": "ED25", "setting": "[1]", "value": 10.8, "unit": "µM"}, {"measurement": "ED75", "setting": "[1]", "value": 30.1, "unit": "µM"}]}
{"compound": "CCCCC/C=C\\C/C=C\\C/C=C\\C/C=C\\CCCC(=O)O", "note": "[AA, arachidonic acid]", "values": [{"measurement": "ED25", "setting": "[1]", "value": 24.0, "unit": "µM"}]}
{"compound": "O=[As]O[As]=O", "note": "(stereo not shown) [AS2O3]", "values": [{"measurement": "RI0.5", "setting": "[2]; [8]", "value": 0.28, "unit": "µM"}]}
{"compound": "CC1=C(/C=C/C(C)=C/C=C/C(C)=C/C(=O)O)C(C)(C)CCC1", "note": "[ATRA, all-trans retinoic acid]", "values": [{"measurement": "ED25", "setting": "[1]", "value": 0.18, "unit": "µM"}, {"measurement": "ED75", "setting": "[1]", "value": 0.75, "unit": "µM"}]}
{"compound": "C/C(=C\\C(=O)Nc1ccccc1C(=O)O)c1ccc2ccccc2c1", "note": "[BIBR1532]", "values": [{"measurement": "ED25", "setting": "[1]", "value": 32.3, "unit": "µM"}, {"measurement": "ED75", "setting": "[1]", "value": 55.1, "unit": "µM"}]}
{"compound": "CCCCC1C(=O)CC[C@H]2[C@@H]1CC(=O)[C@@H]2C/C=C\\CCCC(=O)O", "note": "(stereo partly shown) [BicycloPGE2, bicycloprostaglandin E2]", "values": [{"measurement": "ED25", "setting": "[1]", "value": 21.0, "unit": "µM"}]}
{"compound": "COc1cc2c(cc1O)C[C@H]1c3c(cc(O)c(OC)c3-2)CCN1C", "note": "[Boldine]", "values": [{"measurement": "ED25", "setting": "[1]", "value": 60.1, "unit": "µM"}, {"measurement": "ED75", "setting": "[1]", "value": 94.2, "unit": "µM"}]}
{"compound": "[Cl-].[Cl-].[Co+2]", "note": "[CoCl2]", "values": [{"measurement": "RI0.5", "setting": "[2]", "value": 0.62, "unit": "µM"}]}
{"compound": "COc1cc(/C=C/C(=O)CC(=O)/C=C/c2ccc(O)c(OC)c2)ccc1O", "note": "[Curcumin]", "values": [{"measurement": "water solubility", "setting": "[3]", "value": "not good"}]}
{"compound": "CN(C)C=O", "note": "[DMFA, dimethylformamide]", "values": [{"measurement": "Km", "setting": "[4]; in cell culture, DMFA, 0.3%", "value": 16.4, "unit": "µM"}, {"measurement": "Vmax (% of control)", "setting": "[4]; in cell culture, DMFA, 0.3%", "value": "78 % of control"}, {"measurement": "% NBT+", "setting": "[5]; DMFA, 0.3%", "value": 14, "unit": "%"}]}
{"compound": "O=C(O[C@@H]1Cc2c(O)cc(O)cc2O[C@@H]1c1cc(O)c(O)c(O)c1)c1cc(O)c(O)c(O)c1", "note": "[Epigallocatechin gallate]", "values": [{"measurement": "RI0.5", "setting": "[2]; [8]", "value": 0.62, "unit": "µM"}]}
{"compound": "C/C=C1\\C(=O)C[C@H]2[C@@H]3CCC4=CC(=O)CC[C@]4(C)[C@H]3CC[C@]12C", "note": "[Gugulsterone]", "values": [{"measurement": "RI0.5", "setting": "[2]; [8]", "value": 1.59, "unit": "µM"}]}
{"compound": "O=C(O)Cc1ccccc1", "note": "[PA, phenylacetate]", "values": [{"measurement": "Km", "setting": "[4]; in cell culture, PA, 4 mM", "value": 20.3, "unit": "µM"}, {"measurement": "Vmax (% of control) at 4000 µM", "setting": "[4]; read-out: Vmax (% of control)", "value": 88, "unit": "%"}, {"measurement": "% NBT+", "setting": "[5]; PA, 4 mM", "value": 7, "unit": "%"}]}
{"compound": "CCCCC[C@H](O)/C=C/[C@H]1[C@H](O)CC(=O)[C@@H]1C/C=C\\CCCC(=O)O", "note": "[PGE2, prostaglandin E2]", "values": [{"measurement": "ED25", "setting": "[1]", "value": 20.6, "unit": "µM"}, {"measurement": "ED75", "setting": "[1]", "value": 46.5, "unit": "µM"}]}
{"compound": "CCCCC[C@H](O)/C=C/[C@H]1C(=O)C=C[C@@H]1C/C=C\\CCCC(=O)O", "note": "[PGJ2, prostaglandin J2]", "values": [{"measurement": "ED25", "setting": "[1]", "value": 7.9, "unit": "µM"}, {"measurement": "ED75", "setting": "[1]", "value": 20.5, "unit": "µM"}]}
{"compound": "CC(=O)[C@H]1CC[C@H]2[C@@H]3CC=C4C[C@@H](O)CC[C@]4(C)[C@H]3CC[C@]12C", "note": "[Pregnenolone]", "values": [{"measurement": "RI0.5", "setting": "[2]; [8]", "value": 7.16, "unit": "µM"}, {"measurement": "water solubility", "setting": "[3]", "value": "not good"}]}
{"compound": "CC1=C(/C=C/C(C)=C/C=C/C(C)=C/C(=O)O)C(C)(C)CCC1", "note": "[RA, retinoic acid]", "values": [{"measurement": "Km", "setting": "[4]; in cell culture, RA, 0.15 µM, read-out: Km", "value": 17.5, "unit": "µM"}, {"measurement": "remaining activity at 0.15 µM", "setting": "[4]; in cell culture, RA, 0.15 µM, read-out: Vmax (% of control)", "value": 60, "unit": "%"}, {"measurement": "% NBT+", "setting": "[5]; RA, 0.15 µM", "value": 16, "unit": "%"}]}
{"compound": "O=[Se](O)O", "note": "[Selenite]", "values": [{"measurement": "RI0.5", "setting": "[2]; [8]", "value": 19.7, "unit": "µM"}]}
{"compound": "C=CC1=C(C)C(=O)N=C1C=c1[nH]c(=Cc2[nH]c(O)c(C)c2CCC(=O)O)c(CCC(=O)O)c1C", "note": "[Uroerythrin]", "values": [{"measurement": "RI0.5", "setting": "[2]; [8]", "value": 1.75, "unit": "µM"}]}
{"compound": "C=C1CC[C@H](O)C/C1=C/C=C1\\CCC[C@]2(C)[C@@H]([C@H](C)CCCC(C)C)CC[C@@H]12", "note": "[Vitamin D3]", "values": [{"measurement": "RI0.5", "setting": "[2]; [8]", "value": 0.61, "unit": "µM"}]}
{"compound": "Cc1ccc(Nc2nccc(N(C)c3ccc4c(C)n(C)nc4c3)n2)cc1S(N)(=O)=O.Cl", "note": "[Votrient]", "values": [{"measurement": "RI0.5", "setting": "[2]; [8]", "value": 10.1, "unit": "µM"}]}
{"compound": "CCC(=O)O[C@H]1CC[C@H]2[C@@H]3CCC4=CC(=O)CC[C@]4(C)[C@H]3CC[C@]12C", "note": "[testosterone propionate]", "values": [{"measurement": "sedimentation of MEs (MAT, MT, SAHH) of prostate cytosol", "setting": "[6]", "value": 8, "unit": "S"}]}
{"compound": "CC[C@H](CC[C@@H](C)[C@H]1CC[C@H]2[C@@H]3CC=C4C[C@@H](O)CC[C@]4(C)[C@H]3CC[C@]12C)C(C)C", "note": "[ß-sitoisterol]", "values": [{"measurement": "RI0.5", "setting": "[2]; [8]", "value": 1.72, "unit": "µM"}]}
{"compound": "Phenylbutyric acid", "values": [{"measurement": "RI0.5", "setting": "[2]; [8]", "value": 970, "unit": "µM"}, {"measurement": "response of malignant brain tumors", "setting": "[7]", "value": "responded very well"}]}
{"compound": "Tetradecanoyl phorbol acetate [TPA]", "values": [{"measurement": "ED25", "setting": "[1]", "value": 0.00017, "unit": "µM"}, {"measurement": "ED75", "setting": "[1]", "value": 0.00036, "unit": "µM"}]}
